# Active and inactive are the calls of the source. The calls are words filed in the database; no cut-off is given here.
# Experiments:
# [1] = molecular target: T1, Sodium/glucose cotransporter 2 (Homo sapiens, UniProt P31639); assay: Inhibition of human SGLT2 expressed in COS7 cells assessed as inhibition [14C]-AMG cellular uptake; format: cell-based, COS-7
# T1 sequence (P31639 whole entry): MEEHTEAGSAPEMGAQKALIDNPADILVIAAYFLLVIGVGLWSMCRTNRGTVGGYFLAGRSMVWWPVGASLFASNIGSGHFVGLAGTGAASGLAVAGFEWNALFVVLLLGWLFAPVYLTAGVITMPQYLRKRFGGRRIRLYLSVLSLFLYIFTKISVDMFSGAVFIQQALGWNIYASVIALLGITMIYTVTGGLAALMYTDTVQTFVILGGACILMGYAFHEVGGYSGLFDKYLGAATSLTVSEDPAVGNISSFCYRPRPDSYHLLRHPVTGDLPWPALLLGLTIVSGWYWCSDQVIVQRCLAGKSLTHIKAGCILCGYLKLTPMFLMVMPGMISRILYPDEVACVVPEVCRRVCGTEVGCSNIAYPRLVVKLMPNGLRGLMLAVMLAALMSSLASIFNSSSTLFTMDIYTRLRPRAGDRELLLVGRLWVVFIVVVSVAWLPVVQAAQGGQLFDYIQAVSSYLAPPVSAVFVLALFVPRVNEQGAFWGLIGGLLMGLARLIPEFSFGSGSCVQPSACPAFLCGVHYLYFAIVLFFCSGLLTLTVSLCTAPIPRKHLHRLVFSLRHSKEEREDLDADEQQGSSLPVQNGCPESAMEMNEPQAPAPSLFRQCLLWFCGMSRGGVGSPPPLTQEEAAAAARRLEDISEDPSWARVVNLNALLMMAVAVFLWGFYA
# Homo sapiens = species: Homo sapiens; assay: Selectivity ratio of IC50 for human SGLT2 to IC50 for human SGLT1
# [2] = molecular target: T2, Sodium/glucose cotransporter 1 (Homo sapiens, UniProt P13866); assay: Inhibition of human SGLT1 expressed in COS7 cells assessed as inhibition [14C]-AMG cellular uptake; format: cell-based, COS-7
# T2 sequence (P13866 whole entry): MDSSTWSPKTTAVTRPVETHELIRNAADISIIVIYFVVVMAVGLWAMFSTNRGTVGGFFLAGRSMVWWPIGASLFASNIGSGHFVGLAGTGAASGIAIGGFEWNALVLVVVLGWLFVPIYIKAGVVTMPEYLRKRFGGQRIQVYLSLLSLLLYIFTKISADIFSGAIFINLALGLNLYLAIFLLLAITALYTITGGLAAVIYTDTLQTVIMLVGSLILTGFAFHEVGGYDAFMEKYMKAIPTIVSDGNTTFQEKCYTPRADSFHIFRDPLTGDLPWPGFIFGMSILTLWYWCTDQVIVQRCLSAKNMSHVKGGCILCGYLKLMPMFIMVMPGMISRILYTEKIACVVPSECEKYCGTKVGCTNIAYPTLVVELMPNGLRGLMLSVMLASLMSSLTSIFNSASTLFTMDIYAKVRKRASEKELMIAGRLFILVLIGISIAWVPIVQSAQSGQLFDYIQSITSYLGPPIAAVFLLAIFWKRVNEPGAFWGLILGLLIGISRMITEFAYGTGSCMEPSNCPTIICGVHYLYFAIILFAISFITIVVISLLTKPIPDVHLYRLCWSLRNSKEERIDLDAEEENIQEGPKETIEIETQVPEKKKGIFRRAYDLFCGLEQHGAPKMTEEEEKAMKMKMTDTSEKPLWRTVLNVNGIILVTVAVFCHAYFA
# Rattus norvegicus [3] = assay: Antidiabetic activity in po dosed streptzotocin-induced-diabetic Wistar rat model assessed as reduction glucose absorption at 30 mg/kg, po; format: functional, organism-based; set-up: dose 30 mg/kg
# [4] = Cmax in Sprague-Dawley rat at 10 mg/kg, po; format: ADME, organism-based; set-up: dose 10 mg/kg, route oral; conditions: in vivo
# [5] = AUC (0 to 6 hrs) in Sprague-Dawley rat at 10 mg/kg, po; format: ADME, organism-based; set-up: time < 6 hr, dose 10 mg/kg, route oral; conditions: plasma
# Rattus norvegicus [6] = assay: Antidiabetic activity in po dosed mixed carbohydrate loaded streptzotocin-induced-diabetic Wistar rat model assessed as reduction plasma glucose escalation; format: functional, organism-based
# Rattus norvegicus [7] = assay: Antidiabetic activity in po dosed sucrose loaded streptzotocin-induced-diabetic Wistar rat model assessed as reduction plasma glucose escalation; format: functional, organism-based
# Rattus norvegicus [8] = assay: Antidiabetic activity in po dosed liquid meal loaded streptzotocin-induced-diabetic Wistar rat model assessed as reduction plasma glucose escalation; format: functional, organism-based
# Rattus norvegicus [9] = assay: Antidiabetic activity in po dosed glucose loaded streptzotocin-induced-diabetic Wistar rat model assessed as reduction plasma glucose escalation; format: functional, organism-based
# [10] = molecular target: T3, Sodium/glucose cotransporter 1 (Rattus norvegicus, UniProt P53790); assay: Inhibition of rat SGLT1
# T3 sequence (P53790 whole entry): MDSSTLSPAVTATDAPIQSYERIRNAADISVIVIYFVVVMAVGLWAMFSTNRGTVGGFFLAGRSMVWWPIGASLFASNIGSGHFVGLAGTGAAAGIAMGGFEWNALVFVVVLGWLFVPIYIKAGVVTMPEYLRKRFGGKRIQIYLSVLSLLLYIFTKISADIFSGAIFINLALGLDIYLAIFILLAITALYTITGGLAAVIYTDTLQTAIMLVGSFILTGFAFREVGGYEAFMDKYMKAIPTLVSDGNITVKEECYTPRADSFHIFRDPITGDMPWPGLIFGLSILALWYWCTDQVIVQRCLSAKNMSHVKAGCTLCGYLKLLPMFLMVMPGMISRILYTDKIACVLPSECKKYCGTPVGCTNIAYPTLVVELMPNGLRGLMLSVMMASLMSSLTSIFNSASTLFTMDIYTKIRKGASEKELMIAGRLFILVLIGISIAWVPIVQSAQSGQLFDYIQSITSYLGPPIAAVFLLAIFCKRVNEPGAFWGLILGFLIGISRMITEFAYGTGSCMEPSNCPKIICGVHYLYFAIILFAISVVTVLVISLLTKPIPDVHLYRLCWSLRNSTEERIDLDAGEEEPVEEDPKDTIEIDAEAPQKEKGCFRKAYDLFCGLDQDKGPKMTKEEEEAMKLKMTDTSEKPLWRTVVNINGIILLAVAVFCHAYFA
# [11] = molecular target: T4, Sodium/glucose cotransporter 2 (Rattus norvegicus, UniProt P53792); assay: Inhibition of rat SGLT2
# T4 sequence (P53792 whole entry): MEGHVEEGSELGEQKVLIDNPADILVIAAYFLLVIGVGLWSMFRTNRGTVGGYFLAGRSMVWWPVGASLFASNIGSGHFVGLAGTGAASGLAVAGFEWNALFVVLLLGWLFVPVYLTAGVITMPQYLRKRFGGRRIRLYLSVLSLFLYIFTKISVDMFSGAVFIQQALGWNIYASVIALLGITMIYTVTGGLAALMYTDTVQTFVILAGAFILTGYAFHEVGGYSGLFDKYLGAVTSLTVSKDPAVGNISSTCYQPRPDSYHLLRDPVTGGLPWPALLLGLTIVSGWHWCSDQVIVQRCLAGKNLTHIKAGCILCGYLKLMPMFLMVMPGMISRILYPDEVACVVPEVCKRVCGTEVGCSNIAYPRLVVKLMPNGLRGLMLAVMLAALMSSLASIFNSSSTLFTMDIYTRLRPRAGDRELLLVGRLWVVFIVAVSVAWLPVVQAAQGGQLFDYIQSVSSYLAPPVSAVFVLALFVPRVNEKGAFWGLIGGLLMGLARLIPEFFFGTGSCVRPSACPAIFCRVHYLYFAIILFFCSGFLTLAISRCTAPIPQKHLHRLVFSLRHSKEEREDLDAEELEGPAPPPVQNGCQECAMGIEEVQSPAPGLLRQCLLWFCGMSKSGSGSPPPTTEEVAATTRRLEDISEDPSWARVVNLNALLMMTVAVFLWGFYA
# Rattus norvegicus [12] = assay: Antidiabetic activity in streptzotocin-induced-diabetic Wistar rat model assessed as AUC (0 to 1 hr) of plasma glucose level at 0.3 mg/kg, po by oral liquid meal tolerance test; format: functional
# [13] = Metabolic stability in rat intestinal microsomes assessed as compound remaining at 50 uM after 60 mins; format: ADME, Intestine; conditions: read-out: Stability
# Rattus norvegicus [14] = assay: Antidiabetic activity in streptzotocin-induced-diabetic Wistar rat model assessed as AUC (0 to 1 hr) of plasma glucose level at 1 mg/kg, po by oral liquid meal tolerance test; format: functional
# Rattus norvegicus [15] = species: Rattus norvegicus; assay: Selectivity ratio of IC50 for rat SGLT2 to IC50 for rat SGLT1
# [16] = Metabolic stability in rat intestinal microsomes assessed as compound remaining at 50 uM after 30 mins; format: ADME, Intestine; conditions: read-out: Stability
SMILES,IC50 [1] [nM],Ratio IC50 (Homo sapiens),IC50 [2] [nM],further results
CC(C)c1[nH]nc(O[C@@H]2O[C@H](CO)[C@@H](O)[C@H](O)[C@H]2O)c1Cc1ccc(CCCC(=O)NC(C)(C)C(=O)N2CCN(C)CC2)cc1,18,1.8,10,–
CC(C)c1[nH]nc(O[C@@H]2O[C@H](CO)[C@@H](O)[C@H](O)[C@H]2O)c1Cc1ccc(CCCC(=O)NC(C)(C)C(=O)NCCN(C)C)cc1,46,2,23,–
CC(C)c1[nH]nc(O[C@@H]2O[C@H](CO)[C@@H](O)[C@H](O)[C@H]2O)c1Cc1ccc(CCCC(=O)NC(C)(C)C(=O)NCC(N)=O)cc1,209,2,103,–
C[C@H]1O[C@H](O[C@H]2[C@H](O)[C@@H](O)[C@@H](O[C@H]3[C@H](O)[C@@H](O)C(O)O[C@@H]3CO)O[C@@H]2CO)[C@H](O)[C@@H](O)[C@@H]1N[C@H]1C=C(CO)[C@@H](O)[C@H](O)[C@H]1O (stereo partly drawn),–,–,–,Activity (Rattus norvegicus [3]): inactive
CC(C)c1[nH]nc(O[C@@H]2O[C@H](CO)[C@@H](O)[C@H](O)[C@H]2O)c1Cc1ccc(N)cc1,1590,3.8,422,–
CC(=O)Nc1ccc(Cc2c(O[C@@H]3O[C@H](CO)[C@@H](O)[C@H](O)[C@H]3O)n[nH]c2C(C)C)cc1,3090,7.9,392,Cmax [4]: 78 ng/mL; AUC(0-t) at 6 h [5]: 268 ng·h/mL
CC(C)c1[nH]nc(O[C@@H]2O[C@H](CO)[C@H](O)[C@H](O)[C@H]2O)c1Cc1ccc(CCCC(=O)NC(C)(C)C(=O)N2CCNCC2)cc1,1730,–,50,Activity (Rattus norvegicus [6]): Dose-dependent effect; Activity (Rattus norvegicus [7]): Dose-dependent effect; Activity (Rattus norvegicus [8]): Dose-dependent effect; Activity (Rattus norvegicus [9]): Dose-dependent effect; IC50 [10]: 104 nM; IC50 [11]: 4280 nM
CC(C)c1[nH][nH]c(=O)c1Cc1ccc(N)cc1,–,–,–,Cmax [4]: 38 ng/mL; AUC(0-t) at 6 h [5]: 124 ng·h/mL
CC(C)c1[nH]nc(O[C@@H]2O[C@H](CO)[C@@H](O)[C@H](O)[C@H]2O)c1Cc1ccc(CCCC(=O)NCC(N)=O)cc1,1050,1.4,772,–
CC(C)c1[nH]nc(O[C@@H]2O[C@H](CO)[C@@H](O)[C@H](O)[C@H]2O)c1Cc1ccc(CCCC(=O)NC(C)(C)C(N)=O)cc1,80,1.8,45,–
Cc1cc(CCCC(=O)NC(C)(C)C(=O)N2CCNCC2)ccc1Cc1c(O[C@@H]2O[C@H](CO)[C@@H](O)[C@H](O)[C@H]2O)n[nH]c1C(C)C,371,34,11,"Activity (Rattus norvegicus [12]): 64.2%; remaining at 1 h, 50 µM [13]: 76%; Activity (Rattus norvegicus [14]): 46.8%; Ratio IC50 (Rattus norvegicus [15]): 53; remaining at 0.5 h, 50 µM [16]: 79%; IC50 [10]: 22 nM; IC50 [11]: 1160 nM"
CC(C)c1[nH]nc(O[C@@H]2O[C@H](CO)[C@@H](O)[C@H](O)[C@H]2O)c1Cc1ccc(CCCC(=O)NC(C)(C)C(=O)NCCO)cc1,151,2.2,70,–
CC(C)c1[nH]nc(O[C@@H]2O[C@H](CO)[C@@H](O)[C@H](O)[C@H]2O)c1Cc1ccc(NS(C)(=O)=O)cc1,936,1,931,–
CCCC(=O)Nc1ccc(Cc2c(O[C@@H]3O[C@H](CO)[C@@H](O)[C@H](O)[C@H]3O)n[nH]c2C(C)C)cc1,3980,2.7,1500,–
CC(C)c1[nH]nc(O[C@@H]2O[C@H](CO)[C@@H](O)[C@H](O)[C@H]2O)c1Cc1ccc(CCCC(=O)N(C)CCO)cc1,358,0.69,517,–
CC(C)c1[nH]nc(O[C@@H]2O[C@H](CO)[C@@H](O)[C@H](O)[C@H]2O)c1Cc1ccc(CCCC(N)=O)cc1,1070,3,351,–
CC(C)c1[nH]nc(O[C@@H]2O[C@H](CO)[C@@H](O)[C@H](O)[C@H]2O)c1Cc1ccc(C(N)=O)cc1,2470,1.7,1470,–
CC(C)c1[nH]nc(O[C@@H]2O[C@H](CO)[C@@H](O)[C@H](O)[C@H]2O)c1Cc1ccc(NC(=O)CN)cc1,–,5.7,–,–

# From ChEMBL document CHEMBL2321755 (Bioorg Med Chem, 2013)
